Measured values: US12679878B2, “CRF2 receptor agonists and their use in therapy” (SANOFI, priority 2020, dated 2026)
Starred links: 1 amine or outer side, 2 acyl side, 3 side chain; linkers in the order of their positions; H or OH if unused. Non-standard residues stand in square brackets, D forms with d. Residues, ends and D or L forms follow the SMILES beside them. Groups on a side chain read outwards from the residue. *: point of attachment. C18 diacid = O=C(O)CCCCCCCCCCCCCCCCC(=O)*; γGlu = O=C(O)[C@H](CCC(=O)[*:2])N[*:1]; AEEA = NCCOCCOCC(=O)O; Aib = CC(C)(N)C(=O)O

Experiment: Effect on blood pressure, telemetry (Example 17)
Assay type: in vivo
Conditions: Sprague Dawley rats, 0.1 mg/kg SC
Experimental: The effect of the compounds on blood pressure was determined in telemetry studies in Sprague Dawley rats at a dosage of 0.1 mg/kg SC.
The rats were previously implanted with a telemetry device (DSI, Saint-Paul, USA, HD-S10, HD-S11 or HD S21) and allowed to recover for a minimum period of 2 weeks before treatment with vehicle or the different peptides. Blood pressure (BP) was recorded through a catheter inserted into the abdominal aorta. The device body was placed in the abdomen. At the end of surgery, animals were placed in individual cages until the end of the study.
Pressure signals were recorded for one hour before the treatment (basal period). Thereafter, the subcutaneous administration of the test compound or its vehicle was performed, under continuous recording of the signal over a 48-hour period. Data acquisition was performed using Hem 4.3 acquisition software (Notocord®, Le Pecq, France) connected to the telemetry device. Hemodynamic parameters were recorded during a […] before treatment and every 4-hour period following subcutaneous administration over 48 hours.
Investigated parameters (calculated from BP signal) were Heart Rate (HR) in beats per minute (bpm), Diastolic and Systolic Blood Pressure (DBP) in mmHg, and Mean Blood Pressure (MBP) in mmHg.
Data from Hem were manipulated using Microsoft Excel®. For each parameter, a basal value was determined as the average calculated over a 1-hour period during the pre-treatment sequence, and the values post treatment were calculated over 4-hour periods ([0-4], [4-8], [8-12], [12-16], [16-20], [20-24], [24-28], [32-36], [36-40], [40-44] and [44-48] hours) covering the 48-hour period following administration.
Representative data are presented in Table 15 below, in which “n” represents the number of animals for which individual values were obtained and “Duration” indicates the last time point for which a significant effect on BP was still seen: Table 15

CC[C@H](C)[C@H](N)C(=O)N[C@H](C(=O)N[C@@H](CC(C)C)C(=O)N[C@@H](CO)C(=O)N[C@@H](CC(C)C)C(=O)N[C@@H](CC(=O)O)C(=O)N[C@@H](C(=O)N1CCC[C@H]1C(=O)N[C@H](C(=O)N[C@@H](CCCCN)C(=O)N[C@@H](CC(C)C)C(=O)N[C@@H](CCCCNC(=O)COCCOCCNC(=O)COCCOCCNC(=O)CC[C@H](NC(=O)CCCCCCCCCCCCCCCCC(=O)O)C(=O)O)C(=O)N[C@@H](CCC(N)=O)C(=O)N[C@H](C(=O)N[C@@H](CC(C)C)C(=O)N[C@@H](CC(C)C)C(=O)N[C@@H](CCCCN)C(=O)N[C@@H](CCC(N)=O)C(=O)N[C@@H](CCC(=O)O)C(=O)N[C@@H](CCCNC(=N)N)C(=O)N[C@@H](CCC(N)=O)C(=O)N[C@@H](CCCCN)C(=O)N[C@@H](CCCCN)C(=O)N[C@@H](CCC(N)=O)C(=O)N[C@@H](CCCNC(=N)N)C(=O)N[C@@H](CCC(=O)O)C(=O)N[C@@H](CCC(N)=O)C(=O)N[C@@H](C)C(=O)N[C@@H](CCC(=O)O)C(=O)N[C@@H](CCCCN)C(=O)N[C@@H](CC(N)=O)C(=O)N[C@@H](CCCCN)C(=O)N[C@@H](CCC(N)=O)C(=O)N[C@H](C(=O)N[C@@H](CC(C)C)C(=O)N[C@@H](CCC(=O)O)C(=O)N[C@@H](CCC(N)=O)C(=O)N[C@H](C(N)=O)C(C)C)[C@@H](C)CC)[C@@H](C)CC)[C@@H](C)CC)C(C)C)C(C)C [SEQ ID NO: 137] (H-IVLSLD[dV]PIKLK([AEEA-AEEA-γGlu-C18 diacid])QILLKQERQKKQREQAEKNKQILEQV-NH2)
Duration (h): last time point for which a significant effect on BP was still seen: 28 h | Effect on Systolic Pressure % change from baseline 8 h: −15.9% | Effect on Systolic Pressure % change from baseline 24 h: −6.5%

CC[C@H](C)[C@H](N)C(=O)N[C@H](C(=O)N[C@@H](CC(C)C)C(=O)N[C@@H](CO)C(=O)N[C@@H](CC(C)C)C(=O)N[C@@H](CC(=O)O)C(=O)N[C@@H](C(=O)N1CCC[C@H]1C(=O)N[C@H](C(=O)N[C@@H](CCCCN)C(=O)N[C@@H](CC(C)C)C(=O)N[C@@H](CCCCNC(=O)COCCOCCNC(=O)COCCOCCNC(=O)CC[C@H](NC(=O)CCCCCCCCCCCCCCCCC(=O)O)C(=O)O)C(=O)N[C@@H](CCC(N)=O)C(=O)N[C@H](C(=O)N[C@@H](CC(C)C)C(=O)N[C@@H](CC(C)C)C(=O)N[C@@H](CCCCN)C(=O)N[C@@H](CCC(N)=O)C(=O)N[C@@H](CCC(=O)O)C(=O)N[C@@H](CCCNC(=N)N)C(=O)N[C@@H](CCC(N)=O)C(=O)N[C@@H](CCCCN)C(=O)N[C@@H](CCCCN)C(=O)N[C@@H](CCC(N)=O)C(=O)N[C@@H](CCCNC(=N)N)C(=O)N[C@@H](CCC(=O)O)C(=O)N[C@@H](CCCCN)C(=O)N[C@@H](C)C(=O)N[C@@H](CCC(=O)O)C(=O)N[C@@H](CCCCN)C(=O)N[C@@H](CC(N)=O)C(=O)N[C@@H](CCCCN)C(=O)N[C@@H](CCC(N)=O)C(=O)N[C@H](C(=O)N[C@@H](CC(C)C)C(=O)N[C@@H](C)C(=O)N[C@@H](CCC(N)=O)C(=O)N[C@H](C(N)=O)C(C)C)[C@@H](C)CC)[C@@H](C)CC)[C@@H](C)CC)C(C)C)C(C)C [SEQ ID NO: 138] (H-IVLSLD[dV]PIKLK([AEEA-AEEA-γGlu-C18 diacid])QILLKQERQKKQREKAEKNKQILAQV-NH2)
Duration (h): last time point for which a significant effect on BP was still seen: 30 h | Effect on Systolic Pressure % change from baseline 8 h: −6.1% | Effect on Systolic Pressure % change from baseline 24 h: −3.6%

CC[C@H](C)[C@H](N)C(=O)N[C@H](C(=O)N[C@@H](CC(C)C)C(=O)N[C@@H](CO)C(=O)N[C@@H](CC(C)C)C(=O)N[C@@H](CC(=O)O)C(=O)N[C@@H](C(=O)N1CCC[C@H]1C(=O)N[C@H](C(=O)N[C@@H](CCCCN)C(=O)N[C@@H](CC(C)C)C(=O)N[C@@H](CCCCNC(=O)COCCOCCNC(=O)COCCOCCNC(=O)CC[C@H](NC(=O)CCCCCCCCCCCCCCCCC(=O)O)C(=O)O)C(=O)N[C@@H](CCC(N)=O)C(=O)N[C@H](C(=O)N[C@@H](CC(C)C)C(=O)N[C@@H](CC(C)C)C(=O)N[C@@H](CCC(=O)O)C(=O)N[C@@H](CCC(N)=O)C(=O)N[C@@H](C)C(=O)N[C@@H](CCCNC(=N)N)C(=O)N[C@@H](CCC(N)=O)C(=O)N[C@@H](CCCCN)C(=O)NC(C)(C)C(=O)N[C@@H](CCC(N)=O)C(=O)N[C@@H](CCCNC(=N)N)C(=O)N[C@@H](C)C(=O)N[C@@H](CCC(N)=O)C(=O)N[C@@H](C)C(=O)N[C@@H](CCC(=O)O)C(=O)N[C@@H](CCCCN)C(=O)N[C@@H](CC(N)=O)C(=O)N[C@@H](CCCCN)C(=O)N[C@@H](CCCNC(=N)N)C(=O)N[C@H](C(=O)N[C@@H](CC(C)C)C(=O)N[C@@H](CCC(=O)O)C(=O)N[C@@H](CCCNC(=N)N)C(=O)N[C@H](C(N)=O)C(C)C)[C@@H](C)CC)[C@@H](C)CC)[C@@H](C)CC)C(C)C)C(C)C [SEQ ID NO: 140, IVLSLDvPIKLK*QILLEQARQKAibQRAQAEKNKRILERV-NH2] (H-IVLSLD[dV]PIKLK([AEEA-AEEA-γGlu-C18 diacid])QILLEQARQK[Aib]QRAQAEKNKRILERV-NH2)
Duration (h): last time point for which a significant effect on BP was still seen: 32 h | Effect on Systolic Pressure % change from baseline 8 h: −19.9% | Effect on Systolic Pressure % change from baseline 24 h: −3.0%

CC[C@H](C)[C@H](N)C(=O)N[C@H](C(=O)N[C@@H](CC(C)C)C(=O)N[C@@H](CO)C(=O)N[C@@H](CC(C)C)C(=O)N[C@@H](CC(=O)O)C(=O)N[C@@H](C(=O)N1CCC[C@H]1C(=O)N[C@H](C(=O)N[C@@H](CCCCN)C(=O)N[C@@H](CC(C)C)C(=O)N[C@@H](CCCCNC(=O)COCCOCCNC(=O)COCCOCCNC(=O)CC[C@H](NC(=O)CCCCCCCCCCCCCCCCC(=O)O)C(=O)O)C(=O)N[C@@H](CCC(N)=O)C(=O)N[C@H](C(=O)N[C@@H](CC(C)C)C(=O)N[C@@H](CC(C)C)C(=O)N[C@@H](CCCCN)C(=O)N[C@@H](CCC(N)=O)C(=O)N[C@@H](C)C(=O)N[C@@H](CCCNC(=N)N)C(=O)N[C@@H](CCC(N)=O)C(=O)N[C@@H](CCCCN)C(=O)NC(C)(C)C(=O)N[C@@H](CCC(N)=O)C(=O)N[C@@H](CCCNC(=N)N)C(=O)N[C@@H](C)C(=O)N[C@@H](CCC(N)=O)C(=O)N[C@@H](C)C(=O)N[C@@H](CCC(=O)O)C(=O)N[C@@H](CCCCN)C(=O)N[C@@H](CC(N)=O)C(=O)N[C@@H](CCCCN)C(=O)N[C@@H](CCCNC(=N)N)C(=O)N[C@H](C(=O)N[C@@H](CC(C)C)C(=O)N[C@@H](CCC(=O)O)C(=O)N[C@@H](CCCNC(=N)N)C(=O)N[C@H](C(N)=O)C(C)C)[C@@H](C)CC)[C@@H](C)CC)[C@@H](C)CC)C(C)C)C(C)C [SEQ ID NO: 141, IVLSLDvPIKLK*QILLKQARQKAibQRAQAEKNKRILERV-NH2] (H-IVLSLD[dV]PIKLK([AEEA-AEEA-γGlu-C18 diacid])QILLKQARQK[Aib]QRAQAEKNKRILERV-NH2)
Duration (h): last time point for which a significant effect on BP was still seen: 24 h | Effect on Systolic Pressure % change from baseline 8 h: −5.2% | Effect on Systolic Pressure % change from baseline 24 h: −4.2%

CC[C@H](C)[C@H](N)C(=O)N[C@H](C(=O)N[C@@H](CC(C)C)C(=O)N[C@@H](CO)C(=O)N[C@@H](CC(C)C)C(=O)N[C@@H](CC(=O)O)C(=O)N[C@@H](C(=O)N1CCC[C@H]1C(=O)N[C@H](C(=O)N[C@@H](CCCCN)C(=O)N[C@@H](CC(C)C)C(=O)N[C@@H](CCCCNC(=O)COCCOCCNC(=O)COCCOCCNC(=O)CC[C@H](NC(=O)CCCCCCCCCCCCCCCCC(=O)O)C(=O)O)C(=O)N[C@@H](CCC(N)=O)C(=O)N[C@H](C(=O)N[C@@H](CC(C)C)C(=O)N[C@@H](CC(C)C)C(=O)N[C@@H](CCC(=O)O)C(=O)N[C@@H](CCC(N)=O)C(=O)N[C@@H](C)C(=O)N[C@@H](CCCNC(=N)N)C(=O)N[C@@H](CCC(N)=O)C(=O)N[C@@H](CCCCN)C(=O)NC(C)(C)C(=O)N[C@@H](CCC(N)=O)C(=O)N[C@@H](CCCNC(=N)N)C(=O)N[C@@H](CCC(=O)O)C(=O)N[C@@H](CCC(N)=O)C(=O)N[C@@H](C)C(=O)N[C@@H](CCC(=O)O)C(=O)N[C@@H](CCCCN)C(=O)N[C@@H](CC(N)=O)C(=O)N[C@@H](CCCCN)C(=O)N[C@@H](CCCNC(=N)N)C(=O)N[C@H](C(=O)N[C@@H](CC(C)C)C(=O)N[C@@H](CCC(=O)O)C(=O)N[C@@H](CCCNC(=N)N)C(=O)N[C@H](C(N)=O)C(C)C)[C@@H](C)CC)[C@@H](C)CC)[C@@H](C)CC)C(C)C)C(C)C [SEQ ID NO: 142, IVLSLDvPIKLK*QILLEQARQKAibQREQAEKNKRILERV-NH2] (H-IVLSLD[dV]PIKLK([AEEA-AEEA-γGlu-C18 diacid])QILLEQARQK[Aib]QREQAEKNKRILERV-NH2)
Duration (h): last time point for which a significant effect on BP was still seen: 30 h | Effect on Systolic Pressure % change from baseline 8 h: −22.2% | Effect on Systolic Pressure % change from baseline 24 h: −6.5%
